Laboratory results reported in ChEMBL document CHEMBL5512665, “A CARM1 Inhibitor Potently Suppresses Breast Cancer Both In Vitro and In Vivo” (J Med Chem, 2024).
Active and inactive are the calls of the source. The rule behind the calls is not given here.

Tests used:
[1] = Toxicity in BALB/C mouse implanted with mouse 4T1 cells assessed as change in body weight at 50 mg/kg,ip administrated daily for 14 days; format: organism-based; conditions: in vivo, 336 h, time 14 day
MCF7 [2] = experiment: Induction of cell cycle arrest in human MCF7 cells at 2.5 to 10 uM incubated overnight by propidium iodide staining based flow cytometry; format: functional; conditions: dose 2.5-10 µM
MCF7 [3] = experiment: Synergistic antiproliferative activity against human MCF7 cells assessed as downregulation of TFF1 gene expression at 2.5 uM incubated for 6 hrs in presence of tamoxifen by RT-qPCR analysis; format: functional, cell-based
MDA-MB-231 = experiment: Antitumor activity against human MDA-MB-231 cells xenografted in BALB/C mouse assessed as reduction of tumor weight at 50 mg/kg,ip administrated daily for 11 days; format: functional, organism-based; conditions: time 11.0 day
MCF7 [4] = experiment: Synergistic antiproliferative activity against human MCF7 cells assessed as downregulation of FOXC1 gene expression at 2.5 uM incubated for 6 hrs in presence of fulvestrant by RT-qPCR analysis; format: functional, cell-based
[5] = Toxicity in BALB/C mouse xenografted with human MDA-MB-231 cells assessed as change in liver morphology at 25 mg/kg,ip administrated daily for 11 days; format: organism-based; conditions: in vivo, 264 h, time 11 day
MCF7 [6] = experiment: Antitumor activity against human MCF7 cells xenografted in BALB/C mouse assessed as upregulation of ISG15 gene expression at 50 mg/kg,ip administrated every other day for 29 days by RT-qPCR analysis; format: functional, organism-based; conditions: time 29.0 day

Cc1ccc(-c2nc(N3CCN(CCN(C)C)CC3)ncc2-c2ccoc2)cc1.Cl.Cl
Activity [1]: Non-Toxic
Activity (MCF7 [2]): Active
Activity (MCF7 [3]): Active
Activity (MDA-MB-231): Active
Activity (MCF7 [4]): Active
Activity [5]: Non-Toxic
Activity (MCF7 [6]): Active
